What all share (type): in vitro ADME
Data set [1] is described as follows: Metabolic stability in liver microsomes, dog. The method, then:
(§1) In this study, the metabolic stability of IDP-73152 in microsomes from mice, rats, dogs, and humans, as well as rat hepatocytes, was determined. For a microsomal incubation study, the incubation mixtures, containing mouse, rat, dog, or human liver microsomes at a protein concentration of 0.5 mg/mL, 3.3 mM MgCl2, and 1.3 mM NADPH, in a 100 mM potassium phosphate buffer (pH 7.4), were preincubated for 3 min at 37 °C. In parallel, a control incubation mixture (i.e., identical composition to that of the incubation mixture without NADPH) was also prepared for comparison. The reaction was initiated by the addition of a 10 × solution of IDP-73152 (final concentration in mixtures of 1 μM) to the incubation mixtures or the control incubation mixtures. The mixtures were incubated in a shaking water bath (37 °C, 90 rpm). Aliquots (30 μL) were collected at 0, 15, 30, and 45 min from the mixture and the reaction was terminated by the addition of a 4-fold volume of ice-cold acetonitrile to the sample. The mixture was then vortexed for 5 min and centrifuged for 10 min at 10,000× g. The supernatant was collected and stored at -80 °C until the analysis. For the hepatocyte incubation study, rat hepatocytes were freshly prepared using the two-step collagenase perfusion method with slight modifications. After the isolation, cell viability during the preparation process was first determined by a trypan blue exclusion assay prior to the stability study. The preparation was considered adequate for subsequent studies if the viability was greater than 80%. When appropriate, the hepatocytes were resuspended in Williams' media E containing 10% fetal bovine serum, 1% penicillin-streptomycin, and 0.01% insulin-transferrin-selenium (i.e., 10 mg/mL insulin, 5.5 mg/mL transferrin, and 5 mg/mL selenium) at pH 7.4. The reaction was carried out with the hepatocyte suspension prepared at 1 × 10^6 cells/mL (0.5 mL) and initiated by the addition of equal volume of IDP-73152 solution (i.e., final concentration of the compound at 1 μM in 0.5 × 10^6 cells/mL of hepatocytes) to the hepatocyte suspension. […] Assuming first-order disappearance kinetics, the slope k of the logarithmically transformed IDP-73152 concentration in the sample versus time plot was determined by the linear regression analysis of the data. The total intrinsic clearance (CLint,mic, μL/min/mg protein for microsomal incubation study and CLint,hep, μL/min/million cells for hepatocytes incubation study) was then calculated using the following equations:(4) CLint, mic=k×Volume of incubation medium (μL)/Protein in incubation medium (mg) (5) CLint,hep=k×Volume of incubation (μL)/Number of cells in incubation (×10^6) The unbound intrinsic clearance, with respect to the whole liver ([…]), was then estimated for the two cases. […]
(Liver microsomes are a subcellular fraction often used to study metabolism.)

The nature of data set [2]: Metabolic stability in liver microsomes, human. The method, then: as §1
A short description of data set [3]: Metabolic stability in rat hepatocytes. The method, then:
For the hepatocyte incubation study, rat hepatocytes were freshly prepared using the two-step collagenase perfusion method with slight modifications. After the isolation, cell viability during the preparation process was first determined by a trypan blue exclusion assay prior to the stability study. The preparation was considered adequate for subsequent studies if the viability was greater than 80%. When appropriate, the hepatocytes were resuspended in Williams' media E containing 10% fetal bovine serum, 1% penicillin-streptomycin, and 0.01% insulin-transferrin-selenium (i.e., 10 mg/mL insulin, 5.5 mg/mL transferrin, and 5 mg/mL selenium) at pH 7.4. […] Assuming first-order disappearance kinetics, the slope k of the logarithmically transformed IDP-73152 concentration in the sample versus time plot was determined by the linear regression analysis of the data. The total intrinsic clearance (CLint,mic, μL/min/mg protein for microsomal incubation study and CLint,hep, μL/min/million cells for hepatocytes incubation study) was then calculated using the following equations:(4) CLint, mic=k×Volume of incubation medium (μL)/Protein in incubation medium (mg) (5) CLint,hep=k×Volume of incubation (μL)/Number of cells in incubation (×10^6) The unbound intrinsic clearance, with respect to the whole liver ([…]), was then estimated for the two cases. […]

Regarding `CC(C)(C)[C@H](NC(=O)[C@H](CC1CCCC1)CN(O)C=O)C(=O)N1CCC(NCc2cc(F)c(F)cc2F)CC1` [IDP-73152], the CLhep predicted at 1 μM in data set [1] (dog, liver microsomes, pH 7.4, dogs, read-out: CLh calculated from the CLint,mic (converted)) is 8.87 mL/min/kg; in data set [2] (human, liver microsomes, pH 7.4, humans, from microsomal stability data, well-stirred liver model, read-out: CLp expected in humans (converted)) it was about 3.17 mL/min/kg. Further, the microsomal CLint at 1 μM is 62.6 ± 2.4 µL/min/mg in data set [1] (dog, pH 7.4, dogs liver microsomes 0.5 mg/mL, 1 μM, read-out: CLint,mic) and 31.8 ± 2.2 µL/min/mg in data set [2] (human, microsomes, pH 7.4). Further, the “hepatic ER (extraction ratio)” value in data set [1] (dogs, from microsomal clearance, well-stirred model) is reported as 0.106 ± 0.004; in data set [2] (humans, from microsomal clearance, well-stirred model), 0.159 ± 0.009. In addition, the “CLu,int,H” value stood at 108 ± 4 L/h in data set [1] (dogs, scaled up to the whole liver from microsomes); 206 ± 14 L/h in data set [2] (humans, scaled up to the whole liver from microsomes); 6.82 ± 0.79 L/h in data set [3] (rats, scaled from rat hepatocytes). For the same compound, the hepatocyte CLint at 1 μM in data set [3] (freshly isolated hepatocytes in suspension, pH 7.4, rat hepatocytes 0.5 × 10^6 cells/mL, 1 μM, read-out: CL,int,hep) was 27.7 ± 3.2 µL/min/1e6 cells.

Values taken from PMC9227536, “Prediction of Pharmacokinetics of IDP-73152 in Humans Using Physiologically-Based Pharmacokinetics” (Pharmaceutics, 2022).
